Reference: ChEMBL document CHEMBL1201862, “PubChem BioAssay data set” (2004)
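Tested at 5 concentrations; 48 h exposure; 96-well plates; endpoints linearly interpolated, else capped at highest concentration. Here, GI50 denotes the concentration required for 50% inhibition of growth.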 Active and inactive are the calls of the source. No stated cut-off is given here; in the data, active = GI50 up to about 1.1 µM and inactive = higher.

Legend:
Assay in all cases: NCI tumour cell line growth inhibition, 48 h
HL-60 = test system: HL-60
SW-620 = test system: SW-620
SR = test system: SR
K562 = test system: K562
A549 = test system: A549
NCI-H460 = test system: NCI-H460
UACC-62 = test system: UACC-62
MOLT-4 = test system: MOLT-4
SNB-75 = test system: SNB-75
IGROV-1 = test system: IGROV-1
SF-539 = test system: SF-539
SF-268 = test system: SF-268
SNB-19 = test system: SNB-19
SK-MEL-28 = test system: SK-MEL-28
RXF 393 = test system: RXF 393

Structure (SMILES)	GI50 (HL-60)	GI50 (SW-620)	GI50 (SR)	GI50 (K562)	GI50 (A549)	GI50 (NCI-H460)	GI50 (UACC-62)	GI50 (MOLT-4)	GI50 (SNB-75)	GI50 (IGROV-1)	GI50 (SF-539)	GI50 (SF-268)	GI50 (SNB-19)	GI50 (SK-MEL-28)	GI50 (RXF 393)
COC(CC1(OC)OC(=O)C=C1N)OC (stereo unspecified)	> 100 µM (inactive)	> 100 µM (inactive)	> 100 µM (inactive)	> 100 µM (inactive)	> 100 µM (inactive)	> 100 µM (inactive)	> 100 µM (inactive)	> 100 µM (inactive)	76.7 µM (inactive)	> 100 µM (inactive)	> 100 µM (inactive)	> 100 µM (inactive)	> 100 µM (inactive)	> 100 µM (inactive)	
CC1=CC(O)(c2ccc(-c3ccccc3Cl)cc2)OC1=O (stereo unspecified)	> 100 µM (inactive)	> 100 µM (inactive)		> 100 µM (inactive)	> 100 µM (inactive)	> 100 µM (inactive)	> 100 µM (inactive)	> 100 µM (inactive)	43.1 µM (inactive)	> 100 µM (inactive)	> 100 µM (inactive)	> 100 µM (inactive)	> 100 µM (inactive)	> 100 µM (inactive)	> 100 µM (inactive)
CCC(=O)c1c(NOC2OC(COC(C)=O)C(OC(C)=O)C(OC(C)=O)C2OC(C)=O)nc(OC)n(C)c1=O (stereo unspecified)		> 100 µM (inactive)	> 100 µM (inactive)	> 100 µM (inactive)	> 100 µM (inactive)	> 100 µM (inactive)	> 100 µM (inactive)	> 100 µM (inactive)	> 100 µM (inactive)	> 100 µM (inactive)	69.2 µM (inactive)	> 100 µM (inactive)	> 100 µM (inactive)	> 100 µM (inactive)	> 100 µM (inactive)
Cn1c(=O)c(C(=O)NC(=O)NCCCCCOC(=O)CCCCCCCCCCC(=O)OCCCCCNC(=O)NC(=O)c2cn(Cc3ccccc3)c(=O)n(C)c2=O)cn(Cc2ccccc2)c1=O	> 100 µM (inactive)	> 100 µM (inactive)		> 100 µM (inactive)	> 100 µM (inactive)	> 100 µM (inactive)	> 100 µM (inactive)		> 100 µM (inactive)	> 100 µM (inactive)	> 100 µM (inactive)	> 100 µM (inactive)	> 100 µM (inactive)	> 100 µM (inactive)	> 100 µM (inactive)
COC(=O)[C@H]1C=C[C@@H](C)n2c(=O)c3ccccc3c(=O)n21	> 100 µM (inactive)	> 100 µM (inactive)	> 100 µM (inactive)	> 100 µM (inactive)	> 100 µM (inactive)	> 100 µM (inactive)		> 100 µM (inactive)	> 100 µM (inactive)	> 100 µM (inactive)	> 100 µM (inactive)	> 100 µM (inactive)	> 100 µM (inactive)	> 100 µM (inactive)	> 100 µM (inactive)
CCN(CC)c1ccc(/N=N/c2ccc(-c3nc4cccnc4s3)cc2)cc1	> 100 µM (inactive)	> 100 µM (inactive)	> 100 µM (inactive)	> 100 µM (inactive)	88.7 µM (inactive)	60.3 µM (inactive)	97.9 µM (inactive)	> 100 µM (inactive)	32.8 µM (inactive)	> 100 µM (inactive)		57.5 µM (inactive)	> 100 µM (inactive)	> 100 µM (inactive)	
CC(=O)Nc1ccc(-c2nnc(SCC(=O)Nc3ccccc3C)o2)cc1	57.9 µM (inactive)	> 100 µM (inactive)	55.5 µM (inactive)	82.6 µM (inactive)	> 100 µM (inactive)	96.8 µM (inactive)	> 100 µM (inactive)	51.9 µM (inactive)	> 100 µM (inactive)	67 µM (inactive)	> 100 µM (inactive)	> 100 µM (inactive)		> 100 µM (inactive)	65.3 µM (inactive)
Cn1cc(NC(=O)c2cc(NC(=O)CCCCCC(=O)Nc3cc(C(=O)Nc4cc(C(=O)NCCC(=N)N)n(C)c4)n(C)c3)cn2C)cc1C(=O)NCCC(=N)N	30 µM (inactive)	> 100 µM (inactive)		83.6 µM (inactive)	45.3 µM (inactive)	26.4 µM (inactive)	64.9 µM (inactive)		> 100 µM (inactive)	98.6 µM (inactive)	> 100 µM (inactive)	> 100 µM (inactive)	> 100 µM (inactive)	25.2 µM (inactive)	> 100 µM (inactive)
O=c1cccccc1O.O=c1cccccc1O.O=c1cccccc1O.[SiH4]		10.4 µM (inactive)		6.87 µM (inactive)	25.6 µM (inactive)		0.822 µM (active)	5.74 µM (inactive)	29.1 µM (inactive)	12.8 µM (inactive)	18.3 µM (inactive)	42.9 µM (inactive)	> 100 µM (inactive)	55.1 µM (inactive)	
O=C(c1ccccc1)N1C2C3CC(OCc4ccccc4)(OCc4ccccc4)C(O3)C21 (stereo unspecified)	> 100 µM (inactive)	> 100 µM (inactive)		62.2 µM (inactive)	> 100 µM (inactive)	> 100 µM (inactive)	> 100 µM (inactive)	> 100 µM (inactive)	> 100 µM (inactive)	> 100 µM (inactive)	> 100 µM (inactive)	> 100 µM (inactive)	> 100 µM (inactive)	> 100 µM (inactive)	> 100 µM (inactive)
CCCCCCC(O)C/C=C/CCCCCC/C(C(=O)OC)=C(/O)C(=O)OCC (stereo unspecified)	67.1 µM (inactive)	> 100 µM (inactive)	7.93 µM (inactive)	97.7 µM (inactive)	> 100 µM (inactive)	> 100 µM (inactive)	> 100 µM (inactive)	72.8 µM (inactive)	> 100 µM (inactive)	> 100 µM (inactive)	> 100 µM (inactive)	> 100 µM (inactive)	> 100 µM (inactive)	> 100 µM (inactive)	
C=C1C(=O)OC2/C=C(/C)C3CC(O)C(C)(CC(OC(=O)/C(C)=C/C)C12)O3 (stereo unspecified)	0.759 µM (active)	1.65 µM (inactive)		1.69 µM (inactive)	6.61 µM (inactive)	6.18 µM (inactive)	2.03 µM (inactive)	1.91 µM (inactive)	9.04 µM (inactive)	5.26 µM (inactive)	2.14 µM (inactive)	4.2 µM (inactive)	1.97 µM (inactive)	2.52 µM (inactive)	1.52 µM (inactive)
CN(C)CC/C(=N\Nc1ccc(Cl)cc1Cl)c1ccccc1	5.07 µM (inactive)	16 µM (inactive)	12 µM (inactive)	14.3 µM (inactive)	15 µM (inactive)	13.8 µM (inactive)	14.6 µM (inactive)	5.73 µM (inactive)	7.74 µM (inactive)	10.1 µM (inactive)	18.1 µM (inactive)		16.1 µM (inactive)	15.2 µM (inactive)	7.96 µM (inactive)
CNC1=Nc2ccc(Cl)cc2C(OP(=O)(N2CCOCC2)N2CCOCC2)=NC1	> 100 µM (inactive)	> 100 µM (inactive)	> 100 µM (inactive)	> 100 µM (inactive)	> 100 µM (inactive)	> 100 µM (inactive)	> 100 µM (inactive)	> 100 µM (inactive)	> 100 µM (inactive)		> 100 µM (inactive)		> 100 µM (inactive)	> 100 µM (inactive)	> 100 µM (inactive)
CCOC(=O)C1=C(c2ccccc2)NC(c2ccccc2)=C(C(=O)OCC)c2c1c(=O)cc[nH]c2=O	> 100 µM (inactive)	> 100 µM (inactive)	83.8 µM (inactive)	39.9 µM (inactive)	> 100 µM (inactive)	> 100 µM (inactive)	26.4 µM (inactive)	63.1 µM (inactive)	> 100 µM (inactive)	> 100 µM (inactive)	> 100 µM (inactive)	> 100 µM (inactive)	> 100 µM (inactive)	66.1 µM (inactive)	
Nc1ncnc2c1ncn2C1OC(CSCc2ccc(Cl)cc2)C(O)C1O (stereo unspecified)	23.8 µM (inactive)	31.8 µM (inactive)		30 µM (inactive)	43.1 µM (inactive)	> 100 µM (inactive)	46.9 µM (inactive)	10.7 µM (inactive)	18.3 µM (inactive)	89.3 µM (inactive)	29.4 µM (inactive)	40.1 µM (inactive)	35.9 µM (inactive)		21.2 µM (inactive)
C=CN1C(=O)[C@H](Oc2ccccc2)[C@@H]1c1ccccc1		33.3 µM (inactive)	40.3 µM (inactive)	36.3 µM (inactive)	26.8 µM (inactive)	30.3 µM (inactive)		36.6 µM (inactive)	15.6 µM (inactive)	> 100 µM (inactive)	16.2 µM (inactive)	37.2 µM (inactive)	33.6 µM (inactive)	36.4 µM (inactive)	17.8 µM (inactive)
Cn1nc(-c2ccccc2)c(C(=O)/C=C/c2ccc(Cl)cc2)c(N2CCCC2)c1=O	1.92 µM (inactive)	4.02 µM (inactive)		2.66 µM (inactive)	4.36 µM (inactive)	3.86 µM (inactive)	4.55 µM (inactive)	2.38 µM (inactive)		6.31 µM (inactive)	3.55 µM (inactive)	4.61 µM (inactive)	10 µM (inactive)	3.76 µM (inactive)	2.63 µM (inactive)
CCOC(=O)NC(=O)c1cn(CCCOC(=O)NCCCCCCNC(=O)OCCCn2cc(C(=O)NC(=O)OCC)c(=O)[nH]c2=O)c(=O)[nH]c1=O	16.7 µM (inactive)	26 µM (inactive)		7.67 µM (inactive)	> 100 µM (inactive)	77.4 µM (inactive)	20.1 µM (inactive)	36.3 µM (inactive)	23.3 µM (inactive)	41.9 µM (inactive)	18.5 µM (inactive)		28.6 µM (inactive)	28.3 µM (inactive)	> 10 µM (inactive)
CC(=O)CC(=O)CCC(=O)Nc1cccc(C(F)(F)F)c1	> 100 µM (inactive)	> 100 µM (inactive)		> 100 µM (inactive)	> 100 µM (inactive)	> 100 µM (inactive)	> 100 µM (inactive)	> 100 µM (inactive)		> 100 µM (inactive)	> 100 µM (inactive)	> 100 µM (inactive)	> 100 µM (inactive)		
